Consider ten molecules from ChEMBL document CHEMBL1201862, “PubChem BioAssay data set” (2004).

Common to all, as to assay: NCI-60 cell line screen, 48 h
The test system of test [1] is ACHN.
For test [2], the system named is MDA-N.
The subject of test [3] is EKVX.
The subject of test [4] is K562.
Test [5] deals with SF-295.
In test [6] the test system is SK-MEL-5.
The test system of test [7] is COLO 205.
Test [8] deals with NCI-H23.
The subject of test [9] is HCT-15.
Test [10] relates to NCI-H522.
In test [11] the test system is PC-3.
In test [12] the test system is HCC 2998.
Test [13] has as its system OVCAR-3.
Test [14] has as its system LOX IMVI.
Test [15] has as its system IGROV-1.
In test [16] the test system is SNB-75.
Test [17] deals with OVCAR-5.
The subject of test [18] is A549.
Test [19] deals with SF-539.
For test [20], the system named is OVCAR-8.

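The compound was tested at five concentrations on cells cultured in 96-well plates, with a 48-hour exposure period. Here, GI50 denotes the concentration required for 50% inhibition of growth.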 Calls of active or inactive are those of the source. Cut-off read from the data, not from the text of the source: active = GI50 up to about 1.1 µM and inactive = higher. Bounds are passed on as bounds.

Take `C=CCSC1=N/C(=C\c2ccccc2)C(=O)N1CC=C`: the GI50 in [1] was 41.8 µM (inactive); in test [2] it was 30.3 µM (inactive); in test [3] it was 22.5 µM (inactive); in test [4] it was 3.48 µM (inactive); in [5], 58.1 µM (inactive); in [6], 17.8 µM (inactive). Also, the GI50 in test [7] is 41.6 µM (inactive); in [8], 56 µM (inactive); in test [9] it was 35.2 µM; in test [10], 31.2 µM (inactive); in [11], 24.8 µM (inactive); in [12], 28.9 µM (inactive). Besides, the GI50 in [13] was > 47.2 µM (inactive); in test [14] it was 26.4 µM (inactive); in test [15], > 100 µM (inactive); in [16] it was 33.3 µM (inactive); in test [17], > 100 µM (inactive); in test [18], 44.6 µM (inactive). Also, the GI50 in test [19] was 84.1 µM (inactive); in test [20] it was 32.7 µM (inactive).

Consider `CCc1n[nH]c(=O)n1N1C(=O)C2CC=CCC2C1=O` (stereo not given), for which the GI50 in [1], in [2], in test [3], in [4], in [5] and in test [6] was > 100 µM (inactive) throughout. Further, the GI50 in test [7] was > 100 µM (inactive); in test [8], > 100 µM (inactive); in test [9] it was more than 100 µM; in test [10], > 100 µM (inactive); in test [11], > 100 µM (inactive); in test [12], > 100 µM (inactive). Moreover, the GI50 was > 100 µM (inactive) in test [13]; > 100 µM (inactive) in test [14]; > 100 µM (inactive) in test [15]; 39.1 µM (inactive) in test [16]; > 100 µM (inactive) in test [17]; > 100 µM (inactive) in [18]. Also, the GI50 in test [19] and in [20] was > 100 µM (inactive) in each case.

For `O=C(NCCc1ccccc1)c1c(O)nc2ccccc2c1O`, the GI50 in test [1], in test [2], in test [3], in test [4], in test [5] and in test [6] was > 100 µM (inactive) in each case. The GI50 in [7] was > 100 µM (inactive); in test [8] it was > 100 µM (inactive); in test [9], more than 100 µM; in test [10], > 100 µM (inactive); in test [11], > 100 µM (inactive); in test [12] it was > 100 µM (inactive). The GI50 in test [13], in test [14], in test [15], in test [16], in test [17] and in test [18] was > 100 µM (inactive) throughout. Further, the GI50 in [19] and in test [20] was > 100 µM (inactive) throughout.

Take `C/C(=N\NC(=O)CC#N)C(CN1CCCCC1)C(c1ccccc1)c1c(O)c2ccccc2oc1=O` (stereo not given): the GI50 is 35 µM (inactive) in test [1]; 49.8 µM (inactive) in [2]; > 100 µM (inactive) in test [3]; 55 µM (inactive) in test [4]; 51.2 µM (inactive) in test [6]; 18.6 µM (inactive) in test [7]. For the same molecule, the GI50 is 46.2 µM (inactive) in [8]; 45.5 µM in test [9]; 58.2 µM (inactive) in test [10]; 58.3 µM (inactive) in test [11]; 55.7 µM (inactive) in test [12]; 47.5 µM (inactive) in test [13]. The GI50 in test [14] is 17.4 µM (inactive); in test [15], 77.6 µM (inactive); in test [16], 67.5 µM (inactive); in test [17], > 100 µM (inactive); in [18], 45.7 µM (inactive); in test [19] it was 52.6 µM (inactive). In [20], the GI50 was 63.5 µM (inactive).

As for `O=c1c2cc(Cl)ccc2n2nnc3ccc(NCCNCCO)c1c32`, the GI50 in test [1] was 0.682 µM (active); in [2], 1.1 µM (active); in test [3] it was 1.93 µM (inactive); in test [4], 0.589 µM (active); in test [5], 0.689 µM (active); in test [6] it was 1.48 µM (inactive). Besides, the GI50 in test [7] was 0.977 µM (active); in test [8], 1.36 µM (inactive); in [9], 0.718 µM; in test [10] it was 1.33 µM (inactive); in [11], 1.16 µM (inactive); in test [12], 1.37 µM (inactive). The GI50 is 1.59 µM (inactive) in test [13]; 0.583 µM (active) in [14]; 2.11 µM (inactive) in [15]; 0.0753 µM (active) in test [16]; 1.64 µM (inactive) in test [17]; 0.719 µM (active) in test [18]. The GI50 in test [19] was 1.8 µM (inactive); in test [20] it was 0.614 µM (active).

For the molecule `Cc1ccc2c(c1)C(=O)C(C1OC(=O)c3ccccc31)C2` (stereo not given), the GI50 is 83.8 µM (inactive) in test [1]; > 100 µM (inactive) in test [2]; > 100 µM (inactive) in [3]; 97.3 µM (inactive) in test [4]; > 100 µM (inactive) in [5]; 65.3 µM (inactive) in test [6]. The GI50 in test [7] was 56.2 µM (inactive); in test [8], > 100 µM (inactive); in [9], 42.8 µM; in test [10], 83.4 µM (inactive); in test [11], 93.5 µM (inactive); in [12] it was > 100 µM (inactive). The GI50 was 91 µM (inactive) in [13]; 39.9 µM (inactive) in test [14]; > 100 µM (inactive) in test [15]; > 100 µM (inactive) in test [16]; > 100 µM (inactive) in test [17]; > 100 µM (inactive) in [18]. Further, the GI50 is 52 µM (inactive) in [19] and > 100 µM (inactive) in test [20].

For `COc1cc(/C=C2\CC3C4CC=C5C[C@@H](O)CC[C@]5(C)C4CC[C@]3(C)\C2=N\O)cc(OC)c1OC` (stereo not given in full), the GI50 was 3.2 µM (inactive) in [1]; 6.37 µM (inactive) in [2]; 6.04 µM (inactive) in test [3]; 34.4 µM (inactive) in test [4]; 3.02 µM (inactive) in [5]; 4.4 µM (inactive) in test [6]. Besides, the GI50 is 3.73 µM (inactive) in test [7]; 7.16 µM (inactive) in [8]; 3.88 µM in test [9]; 4.93 µM (inactive) in test [10]; 4.28 µM (inactive) in test [11]; 6.34 µM (inactive) in test [12]. The GI50 in test [13] was 7.29 µM (inactive); in [14], 5.48 µM (inactive); in test [15], 13 µM (inactive); in test [16] it was 9.2 µM (inactive); in test [17] it was 10.3 µM (inactive); in [18], 4.65 µM (inactive). Besides, the GI50 in test [19] was 6.25 µM (inactive); in test [20], 8.45 µM (inactive).

`O=C(NNC(=S)Nc1ccccc1)c1cc(-c2ccccc2)nc2ccccc12`: the GI50 in test [1] is 27.5 µM (inactive); in test [2], 18.2 µM (inactive); in [4], 17.4 µM (inactive); in [5], 13.1 µM (inactive); in [6], 13.2 µM (inactive); in [7] it was 15.7 µM (inactive). For the same molecule, the GI50 was 16.3 µM (inactive) in test [8]; 13.9 µM in test [9]; 18.1 µM (inactive) in test [10]; 18.6 µM (inactive) in test [11]; 15.5 µM (inactive) in [12]; 11.1 µM (inactive) in test [13]. The GI50 in [15] was 26.7 µM (inactive); in [16], 17.3 µM (inactive); in test [17], 18.1 µM (inactive); in test [18], 16.7 µM (inactive); in [19] it was 21.4 µM (inactive); in [20], 22.3 µM (inactive).

Take `O=C(/C(=N/Nc1cn[nH]c(=O)c1Cl)c1ccccc1)c1ccccc1`: the GI50 is 57.9 µM (inactive) in test [1]; 4.99 µM (inactive) in [2]; 24 µM (inactive) in test [3]; 24.5 µM (inactive) in test [4]; 27.6 µM (inactive) in test [5]; 28.2 µM (inactive) in [6]. Further, the GI50 in test [7] was 20.3 µM (inactive); in test [8] it was 22.4 µM (inactive); in test [9], 12.6 µM; in test [10] it was 17.1 µM (inactive); in test [11], 27.5 µM (inactive); in test [12], 26.9 µM (inactive). Also, the GI50 in test [13] was 18 µM (inactive); in test [14] it was 18.8 µM (inactive); in [15], 18.9 µM (inactive); in test [16] it was 8.79 µM (inactive); in test [18], 18.3 µM (inactive); in [19] it was 22.6 µM (inactive). In test [20], the GI50 was 36.1 µM (inactive).

As for `C[C@@]12C[C@@H](c3ccccc3O1)N1CCCSC1=N2`, the GI50 in test [1], in test [2], in test [3], in test [4], in test [5] and in test [6] was > 100 µM (inactive) each time. For the same molecule, the GI50 was > 100 µM (inactive) in test [7]; > 100 µM (inactive) in [8]; more than 100 µM in test [9]; > 100 µM (inactive) in test [10]; > 100 µM (inactive) in test [11]; > 100 µM (inactive) in test [12]. Moreover, the GI50 in [13], in test [14], in [15], in test [16], in [17] and in test [19] was > 100 µM (inactive) each time. The GI50 in test [20] is > 100 µM (inactive).
